Measurements taken from patent US8163921B2, “Hepatitis C virus inhibitors” (Bristol-Myers Squibb Company, priority 2008, dated 2012).

What was measured:
[1] = target: T1, human neutrophil elastase (HNE) (Homo sapiens, UniProt P08246); assay: Specificity assay, elastase (HNE); type: biochemical; settings: read-out: HLE activity in the specificity assays
T1 construct: purchased Sigma, EMDbiosciences
T1 sequence (P08246 30-247 limits assumed): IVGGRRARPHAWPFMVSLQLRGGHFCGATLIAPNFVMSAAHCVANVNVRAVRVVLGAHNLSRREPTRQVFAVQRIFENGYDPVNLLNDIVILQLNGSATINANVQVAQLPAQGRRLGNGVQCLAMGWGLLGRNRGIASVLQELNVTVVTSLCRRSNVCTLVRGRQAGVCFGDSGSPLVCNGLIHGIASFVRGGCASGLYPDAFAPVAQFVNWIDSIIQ
Procedure: (§1) The specificities of compounds of the present disclosure were determined against a variety of serine proteases: human neutrophil elastase (HNE), porcine pancreatic elastase (PPE) and human pancreatic chymotrypsin and one cysteine protease: human liver cathepsin B. In all cases a 96-well plate format protocol using a fluorometric Amino-Methyl-Coumarin (AMC) substrate specific for each enzyme was used as described previously (PCT Patent Application No. WO 00/09543) with some modifications to the serine protease assays. All enzymes were purchased from Sigma, EMDbiosciences while the substrates were from Bachem, Sigma and EMDbiosciences.
(§2) Compound concentrations varied from 100 to 0.4 μM depending on their potency. The enzyme assays were each initiated by addition of substrate to enzyme-inhibitor pre-incubated for 10 min at room temperature and hydrolysis to 15% conversion as measured on cytofluor.
(§3) 50 mM Tris-HCl, pH 8.0, 50 mM NaCl, 0.1 mM EDTA, 3% DMSO, 0.02% Tween-20, 5 μM succ-AAPV-AMC and 20 nM HNE or 8 nM PPE;
(§4) The percentage of inhibition was calculated using the formula: [1−((UVinh−UVblank)/(UVctl−UVblank))]×100
(§5) A non-linear curve fit was applied to the inhibition-concentration data, and the 50% effective concentration (IC50) was calculated by the use of Excel XLfit software.

[2] = target: T2, porcine pancreatic elastase (PPE) (Sus scrofa, UniProt P00772); assay: Specificity assay, PPE; type: biochemical; settings: read-out: PPE activity in the specificity assays
T2 construct: purchased Sigma, EMDbiosciences
Procedure: as §1, §2, §3, §4, §5

[3] = system: HCV replicon in HUH-7 cells; assay: HCV replicon FRET assay; type: cell-based, HCV strain 1b; settings: Hepatitis C virus, Huh-7; read-out: EC50 value in the replicon FRET assay
[4] = system: human pancreatic chymotrypsin; assay: Specificity assay, chymotrypsin; type: biochemical; settings: read-out: Chymotrypsin activity in the specificity assays
Procedure: as §1, §2
50 mM Tris(hydroxymethyl)aminomethane hydrochloride (Tris-HCl) pH 8, 0.5 M Sodium Sulfate (Na2SO4), 50 mM NaCl, 0.1 mM EDTA, 3% DMSO, 0.01% Tween-20 with 5 μM LLVY-AMC and 1 nM Chymotrypsin.
as §4, §5

[5] = system: HCV replicon (Renilla luciferase) in HUH-7 cells; assay: HCV replicon luciferase reporter assay; type: cell-based, HCV strain 1b
Text: An HCV replicon whole cell system was established as described by Lohmann V, Korner F, Koch J, Herian U, Theilmann L, Bartenschlager R., Science 285(5424):110-3 (1999). This system enabled us to evaluate the effects of our HCV Protease compounds on HCV RNA replication. Briefly, using the HCV strain 1b sequence described in the Lohmann paper (Assession number:AJ238799), an HCV cDNA was synthesized by Operon Technologies, Inc. (Alameda, Calif.), and the full-length replicon was then assembled in plasmid pGem9zf(+) (Promega, Madison, Wis.) using standard molecular biology techniques. […]
As a secondary assay, EC50 determinations from the replicon FRET assay were confirmed in a replicon luciferase reporter assay. […] Following 4 days in a 37° C./5% CO2 incubator, cells were analyzed for Renilla Luciferase activity using the Promega Dual-Glo Luciferase Assay System. […] Plates were read on a Packard TopCount NXT using a luminescence program. The percentage inhibition was calculated using the formula below: % control=average luciferase signal in experimental wells (+compound) average luciferase signal in DMSO control wells (−compound)
The values were graphed and analyzed using XLfit to obtain the EC50 value.

T2 sequence (P00772 27-266): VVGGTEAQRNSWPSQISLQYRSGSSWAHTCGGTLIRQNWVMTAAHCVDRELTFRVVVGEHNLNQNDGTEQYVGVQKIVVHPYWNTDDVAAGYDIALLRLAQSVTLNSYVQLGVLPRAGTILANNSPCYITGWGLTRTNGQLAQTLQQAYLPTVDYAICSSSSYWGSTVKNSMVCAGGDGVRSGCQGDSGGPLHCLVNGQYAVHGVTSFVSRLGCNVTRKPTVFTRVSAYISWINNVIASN

In the case of `C=C[C@@H]1C[C@]1(NC(=O)[C@@H]1C[C@@H](Oc2ncc(OC)c3ccc(Cl)cc23)CN1C(=O)[C@@H](Nc1nc(-c2cccc(OC(F)(F)F)c2)cs1)C(C)(C)C)C(=O)NS(=O)(=O)C1CC1` [Example 68], the IC50 [1] is reported as greater than 50000 nM, the IC50 [2] is reported as greater than 50000 nM and the EC50 [3] is reported as 5.7 nM. It also gave an IC50 [4] of 3000 nM and an EC50 [5] of 2 nM.
